These compounds were tested against T1, AUX1 (Arabidopsis thaliana, UniProt Q96247) (assay: inhibition of [3H]IAA uptake in AUX1-expressing HEK293T cells). Conditions: about 30 nM [3H]IAA, pH 6.0, 37 °C, 10 min.
T1 sequence (Q96247 1-485): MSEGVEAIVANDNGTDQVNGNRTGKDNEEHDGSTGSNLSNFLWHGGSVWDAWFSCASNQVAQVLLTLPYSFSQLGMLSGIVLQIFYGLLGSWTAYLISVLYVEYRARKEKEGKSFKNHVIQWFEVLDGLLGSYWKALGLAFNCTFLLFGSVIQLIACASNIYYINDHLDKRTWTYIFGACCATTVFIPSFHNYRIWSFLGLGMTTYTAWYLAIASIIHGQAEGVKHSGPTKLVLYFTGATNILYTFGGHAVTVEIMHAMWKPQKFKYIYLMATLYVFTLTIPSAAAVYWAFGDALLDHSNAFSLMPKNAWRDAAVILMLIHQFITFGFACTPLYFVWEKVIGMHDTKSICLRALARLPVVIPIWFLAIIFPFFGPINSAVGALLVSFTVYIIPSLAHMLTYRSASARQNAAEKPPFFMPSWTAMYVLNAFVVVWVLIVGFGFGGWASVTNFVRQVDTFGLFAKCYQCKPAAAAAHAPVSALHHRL
Assay type: cell-based

Row | Structure (SMILES) | % relative auxin accumulation at 50 μM inhibitor
1 | O=C(O)COc1cccc2ccccc12 [1-NOA, 1-naphthoxyacetic acid] | reduced the uptake of [^3H]IAA in AUX1-expressing HEK293T cells
2 | O=C(O)COc1ccc2ccccc2c1 [2-NOA, 2-naphthoxyacetic acid] | reduced the uptake of [^3H]IAA in AUX1-expressing HEK293T cells
3 | O=C(O)Cc1ccc(O)c(Cl)c1 [CHPAA, 3-chloro-4-hydroxyphenylacetic acid] | reduced the uptake of [^3H]IAA in AUX1-expressing HEK293T cells
